Results as given in patent publication US20190192517A1, “TREATMENT OF SQUAMOUS CELL CARCINOMAS WITH INHIBITORS OF ERK” (Kura Oncology, Inc., priority 2016, published 2019).

Target: T1, ERK2 enzyme (Homo sapiens, UniProt P28482)
T1 construct: purchased Life Technologies
Experiment: Inhibition assay of ERK (Z'-LYTE kinase assay, Ser/Thr 3 peptide, 100 μM ATP)
Type: biochemical
Details: in vitro
Description: Example 9: Inhibition Assays of ERK. The inhibition of ERK activity by the compounds disclosed herein was determined using the Z′-LYTE kinase assay kit (Life Technologies) with a Ser/Thr 3 peptide substrate (Life Technologies) according to manufacturer's instructions. […] The IC50 values for the compounds were determined with 3-fold serial dilutions in duplicate. The compounds were first diluted in 1:3 dilutions in 100% DMSO at 100× the desired concentration, and then further diluted (1:25) in 20 mM HEPES buffer (Invitrogen) to make 4× solutions prior to adding to the enzyme solution. The final DMSO concentration in the assay was 1%. Final reaction volume was […] in 384-well plates. Kinase reactions were conducted for 1 hour followed by the assay development reaction (1 hour) in a 384 well plate format (20 μL/well).

T1 sequence (P28482 whole entry): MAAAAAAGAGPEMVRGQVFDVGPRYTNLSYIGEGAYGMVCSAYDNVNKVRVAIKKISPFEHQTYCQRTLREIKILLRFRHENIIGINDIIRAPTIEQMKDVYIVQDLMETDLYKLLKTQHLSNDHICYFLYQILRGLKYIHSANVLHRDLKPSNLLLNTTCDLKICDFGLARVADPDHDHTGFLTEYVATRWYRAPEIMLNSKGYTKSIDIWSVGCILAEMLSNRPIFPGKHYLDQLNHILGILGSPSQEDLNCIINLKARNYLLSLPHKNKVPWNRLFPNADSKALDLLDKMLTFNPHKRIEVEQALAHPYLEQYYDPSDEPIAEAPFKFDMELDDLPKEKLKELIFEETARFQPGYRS

| Structure (SMILES) | IC50 [nM] |
| --- | --- |
| Cc1cc(-c2n[nH]c3cc4[nH]c(=O)c([C@H](C)c5ccc(F)cc5)cc4cc23)ccn1 [Compound 288] | < 500 |
| Cc1cc(-c2n[nH]c3cc4c(cc23)CN([C@@H]2CCCN(Cc3ccc(F)c(Cl)c3)C2)C(=O)N4)ccn1 [Compound 134] | < 500 |
| Cc1cc(-c2n[nH]c3cc4c(cc23)CN([C@H]2CN(Cc3ccccc3)CC(F)(F)C2)C(=O)N4)ccn1 [Compound 264] | < 500 |
| CC(c1ccccc1)c1cc2cc3c(-c4ccncc4)n[nH]c3cc2[nH]c1=O (stereo not shown) [Compound 326] | < 500 |
| O=C1Nc2cc3[nH]nc(-c4ccncc4)c3cc2CN1Cc1ccccc1 [Compound 1] | < 500 |
| Cc1cc(-c2n[nH]c3cc4c(cc23)CN([C@@H]2CCCN(Cc3ccsc3)C2)C(=O)N4)ccn1 [Compound 252] | < 500 |
| Cc1cc(-c2n[nH]c3cc4c(cc23)CN([C@@H]2CCCN(Cc3ccc(F)cc3F)C2)C(=O)N4)ccn1 [Compound 196] | < 500 |
| COc1ccc(-c2n[nH]c3cc4c(cc23)CN([C@@H]2CCCN(Cc3ccc(F)cc3F)C2)C(=O)N4)cn1 [Compound 273] | < 500 |
| Cn1cc(-c2n[nH]c3cc4c(cc23)CN([C@@H]2CCCN(Cc3ccccc3)C2)C(=O)N4)cn1 [Compound 285] | < 500 |
| Cc1cc(-c2n[nH]c3cc4[nH]c(=O)c(C5CCCN(Cc6ccccc6)C5)cc4cc23)ccn1 (stereo not shown) [Compound 332] | < 500 |
| CCC(c1ccccc1)c1cc2cc3c(-c4ccnc(C)c4)n[nH]c3cc2[nH]c1=O (stereo not shown) [Compound 64] | < 500 |
| Cc1cc(-c2n[nH]c3cc4c(cc23)CN(CCNCc2ccccc2)C(=O)N4)ccn1 [Compound 149] | < 500 |
| COc1ncc(-c2n[nH]c3cc4c(cc23)CN([C@@H]2CCCN(Cc3c(F)cccc3F)C2)C(=O)N4)cn1 [Compound 102] | < 500 |
| Cc1cc(-c2n[nH]c3cc4c(cc23)CN([C@@H]2CCCN(Cc3c(F)cccc3F)C2)C(=O)N4)ccn1 [Compound 143] | < 500 |
| Cc1ncc(-c2n[nH]c3cc4c(cc23)CN([C@@H]2CCCN(Cc3ccc(F)cc3F)C2)C(=O)N4)cn1 [Compound 293] | < 500 |
| Cc1cc(-c2n[nH]c3cc4c(cc23)CN(Cc2cccc(C(F)(F)F)c2)C(=O)N4)ccn1 [Compound 240] | < 500 |
| Cc1cc(-c2n[nH]c3cc4c(cc23)CN([C@@H]2CCCN(Cc3cccc(F)c3)C2)C(=O)N4)ccn1 [Compound 184] | < 500 |
| Cc1cc(-c2n[nH]c3cc4c(cc23)CN([C@@H]2CCCN(Cc3sccc3F)C2)C(=O)N4)ccn1 [Compound 291] | < 500 |
| Cc1ccc(-c2n[nH]c3cc4c(cc23)CN([C@@H]2CCCN(Cc3ccc(F)cc3F)C2)C(=O)N4)cn1 [Compound 284] | < 500 |
| Cc1cc(-c2n[nH]c3cc4c(cc23)CN([C@@H]2CN(C)C[C@H]2c2ccccc2)C(=O)N4)cc(C)n1 (racemic) [Compound 248] | < 500 |
| Cc1cc(-c2n[nH]c3cc4c(cc23)CN([C@@H]2CCCN(Cc3ccc(F)c(F)c3)C2)C(=O)N4)ccn1 [Compound 190] | < 500 |
| C=C(c1ccccc1)c1cc2cc3c(-c4ccnc(C)c4)n[nH]c3cc2[nH]c1=O [Compound 269] | < 500 |
| CC(c1ccccc1)c1cc2cc3c(-c4ccnc(N5CCN(C)CC5)c4)n[nH]c3cc2[nH]c1=O (stereo not shown) [Compound 318] | < 500 |

| Structure (SMILES) | IC50 [nM] |
| --- | --- |
| Cc1cc(-c2n[nH]c3cc4c(cc23)CN([C@@H]2CN(CC(F)(F)F)C[C@H]2c2ccccc2)C(=O)N4)ccn1 [Compound 304] | < 500 |
| Cc1cc(-c2n[nH]c3cc4c(cc23)CN([C@@H]2CCCN(Cc3cccc(Cl)c3)C2)C(=O)N4)ccn1 [Compound 156] | < 500 |
| Cc1cc(-c2n[nH]c3cc4c(cc23)CN([C@@H]2CCCN(Cc3cccs3)C2)C(=O)N4)ccn1 [Compound 254] | < 500 |
| Cc1cc(-c2n[nH]c3cc4c(cc23)CN(CC2CCCCC2)C(=O)N4)ccn1 [Compound 213] | < 500 |
| Cc1cc(-c2n[nH]c3cc4c(cc23)CN([C@@H]2CCCN(Cc3cc(F)ccc3F)C2)C(=O)N4)ccn1 [Compound 187] | < 500 |
| COc1ncc(-c2n[nH]c3cc4c(cc23)CN([C@@H]2CCCN(Cc3ccc(F)cc3F)C2)C(=O)N4)cn1 [Compound 280] | < 500 |
| Cc1cc(-c2n[nH]c3cc4c(cc23)CN([C@@H]2CCCN(Cc3ccccc3)C2)C(=O)N4)ccn1 [Compound 63] | < 500 |
| Cc1cc(-c2n[nH]c3cc4c(cc23)CN([C@@H]2CCN(CCc3ccccc3)C2)C(=O)N4)ccn1 [Compound 153] | < 500 |
| CC(c1ccccc1)c1cc2cc3c(-c4cnn(C)c4)n[nH]c3cc2[nH]c1=O (stereo not shown) [Compound 333] | < 500 |
| [2H]c1c([2H])c([2H])c(C([2H])([2H])N2CCC[C@@H](N3Cc4cc5c(-c6ccnc(C)c6)n[nH]c5cc4NC3=O)C2)c([2H])c1[2H] [Compound 165] | < 500 |
| COc1ncc(-c2n[nH]c3cc4[nH]c(=O)c(C5CCCN(Cc6ccccc6)C5)cc4cc23)cn1 (stereo not shown) [Compound 364] | < 500 |
| CC(c1ccccc1)c1cc2cc3c(NC4CCOCC4)n[nH]c3cc2[nH]c1=O (stereo not shown) [Compound 338] | < 500 |
| COc1ccc(-c2n[nH]c3cc4c(cc23)CN([C@@H]2CCCN(Cc3ccccc3)C2)C(=O)N4)cn1 [Compound 272] | < 500 |
| Cc1cc(-c2n[nH]c3cc4c(cc23)CN([C@@H]2CCCN(Cc3ccccc3Cl)C2)C(=O)N4)ccn1 [Compound 158] | < 500 |
| COc1cccc(F)c1CN1CCC[C@@H](N2Cc3cc4c(-c5ccnc(C)c5)n[nH]c4cc3NC2=O)C1 [Compound 144] | < 500 |
| CC(c1ccccc1)c1cc2cc3c(-c4ccc(N5CCN(C)CC5)nc4)n[nH]c3cc2[nH]c1=O (stereo not shown) [Compound 316] | < 500 |
| Cc1cc(-c2n[nH]c3cc4[nH]c(=O)c(C(C)c5ccc(F)cc5)cc4cc23)ccn1 (stereo not shown) [Compound 197] | < 500 |
| Cc1cc(-c2n[nH]c3cc4[nH]c(=O)c(C(C)c5ccccc5)cc4cc23)ccn1 (stereo not shown) [Compound 22] | < 500 |
| COc1cc(-c2n[nH]c3cc4c(cc23)CN([C@@H]2CCCN(Cc3ccc(F)cc3F)C2)C(=O)N4)ccn1 [Compound 271] | < 500 |
| Cc1cc(-c2n[nH]c3cc4c(cc23)CN([C@@H]2CN(CC(F)(F)F)C[C@H]2c2ccccc2)C(=O)N4)cc(C)n1 [Compound 339] | < 500 |
| COc1ncc(-c2n[nH]c3cc4c(cc23)CN([C@@H]2CCCN(Cc3ccccc3)C2)C(=O)N4)cn1 [Compound 104] | < 500 |
| COc1ncc(-c2n[nH]c3cc4c(cc23)CN([C@@H]2CCCN(Cc3ccccc3F)C2)C(=O)N4)cn1 [Compound 101] | < 500 |
| COc1ncc(-c2n[nH]c3cc4c(cc23)CN([C@@H]2CCCN(Cc3c(F)cccc3OC)C2)C(=O)N4)cn1 [Compound 103] | < 500 |

| Structure (SMILES) | IC50 [nM] |
| --- | --- |
| Cc1cc(-c2n[nH]c3cc4c(cc23)CN([C@@H]2CCCN(Cc3cccc(F)c3F)C2)C(=O)N4)ccn1 [Compound 185] | < 500 |
| Cc1cc(-c2n[nH]c3cc4c(cc23)CN([C@@H]2CCN(Cc3ccccc3)C2)C(=O)N4)ccn1 [Compound 146] | < 500 |
| COc1cccc(F)c1CN1CC[C@@H](N2Cc3cc4c(-c5ccnc(C)c5)n[nH]c4cc3NC2=O)C1 [Compound 162] | < 500 |
| Cc1cc(-c2n[nH]c3cc4[nH]c(=O)c([C@H](C)c5ccccc5)cc4cc23)ccn1 [Compound 84] | < 500 |
| Cc1cc(-c2n[nH]c3cc4c(cc23)CN([C@@H]2CN(C(C)C)C[C@H]2c2ccccc2)C(=O)N4)ccn1 (racemic) [Compound 279] | < 500 |
| Cc1cc(-c2n[nH]c3cc4c(cc23)CN([C@@H]2CCCN(Cc3csc(C)c3)C2)C(=O)N4)ccn1 [Compound 251] | < 500 |
| Cc1cc(-c2n[nH]c3cc4c(cc23)CN([C@@H]2CN(C)C[C@H]2c2ccccc2F)C(=O)N4)cc(C)n1 (racemic) [Compound 306] | < 500 |
| [2H]C([2H])(c1ccccc1)N1CCC[C@@H](N2Cc3cc4c(-c5ccnc(C)c5)n[nH]c4cc3NC2=O)C1 [Compound 148] | < 500 |
| COc1ncc(-c2n[nH]c3cc4c(cc23)CN(Cc2cccc(Cl)c2)C(=O)N4)cn1 [Compound 68] | < 500 |
| Cc1cc(-c2n[nH]c3cc4c(cc23)CN(Cc2cc(F)cc(F)c2)C(=O)N4)cc(C)n1 [Compound 225] | < 500 |
| Cc1cc(-c2n[nH]c3cc4c(cc23)CN([C@@H]2CCN(C(C)C(F)(F)F)C2)C(=O)N4)ccn1 (stereo partly shown) [Compound 267] | < 500 |
| C[C@H](c1ccccc1)c1cc2cc3c(NC4CCOCC4)n[nH]c3cc2[nH]c1=O [Compound 357] | < 500 |
| Cc1cc(-c2n[nH]c3cc4c(cc23)CN(C2CCCC2)C(=O)N4)cc(C)n1 [Compound 239] | < 500 |
| Cc1ncc(-c2n[nH]c3cc4c(cc23)CN([C@@H]2CCCN(Cc3ccccc3)C2)C(=O)N4)cn1 [Compound 292] | < 500 |
| COc1cc(-c2n[nH]c3cc4c(cc23)CN([C@@H]2CCCN(Cc3ccccc3)C2)C(=O)N4)ccn1 [Compound 270] | < 500 |
| Cc1cc(-c2n[nH]c3cc4c(cc23)CN(C2CCC2)C(=O)N4)ccn1 [Compound 243] | < 500 |
| O=C1Nc2cc3[nH]nc(-c4ccncc4)c3cc2CN1Cc1cccc(Cl)c1 [Compound 3] | < 500 |
| Cc1cc(-c2n[nH]c3cc4c(cc23)CN([C@@H]2CCCN(C(C)c3ccccc3)C2)C(=O)N4)ccn1 (stereo partly shown) [Compound 154] | < 500 |
| Cc1cc(-c2n[nH]c3cc4c(cc23)CN(CC2CCCC2)C(=O)N4)ccn1 [Compound 212] | < 500 |
| Cn1ccc(-c2n[nH]c3cc4c(cc23)CN([C@@H]2CCCN(Cc3ccc(F)cc3F)C2)C(=O)N4)c1 [Compound 281] | < 500 |
| Cc1cc(-c2n[nH]c3cc4c(cc23)CN([C@@H]2CCN(CC(F)(F)F)C2)C(=O)N4)ccn1 [Compound 214] | < 500 |
